From patent US8017807B2, “Tetrahydroxy compound, method for preparing the tetrahydroxy compound, and photoreceptor using the tetrahydroxy compound” (Ricoh Company Limited, priority 2005, dated 2011)

How the values were obtained:
[1] = Solubility to alcohol (methanol), visual observation; type: physicochemical; conditions: background section, no method given
[2] = as above; type: physicochemical; set-up: key to Solubility to methanol, solid content 5% by weight / Solubility to methanol, solid content 10% by weight / Solubility to methanol, solid content 20% by weight / Solubility to methanol, solid content 30% by weight / Solubility to methanol, solid content 40% by weight / Solubility to methanol, solid content 50% by weight / Solubility to methanol, solid content 60% by weight: ◯: The compound is perfectly dissolved in methanol, and the resultant liquid contains no solid material.; X: The compound is imperfectly dissolved in methanol and the resultant liquid contains a solid material or is opaque (i.e., is not transparent); conditions: for Solubility to methanol, solid content 5% by weight / Solubility to methanol, solid content 10% by weight / Solubility to methanol, solid content 20% by weight / Solubility to methanol, solid content 30% by weight / Solubility to methanol, solid content 40% by weight / Solubility to methanol, solid content 50% by weight / Solubility to methanol, solid content 60% by weight: methanol solution, one hour at room temperature, visual
Description: Each of the compound of Example 1 and comparative compounds (6) to (9) was dissolved in methanol to prepare methanol solutions thereof having a solid content of 5%, 10%, 20%, 30%, 40%, 50% or 60% by weight. Alter the solutions were allowed to settle for one hour at room temperature, the solutions were visually observed to determine the solubility of the compounds to methanol. The solubility to methanol was graded as follows:
◯: The compound is perfectly dissolved in methanol, and the resultant liquid contains no solid material.
X: The compound is imperfectly dissolved in methanol and the resultant liquid contains a solid material or is opaque (i.e., is not transparent).

[3] = Film formability when mixed 1:1 with alcohol-soluble polyamide resin (CM8000), blade-coated layer; type: physicochemical; set-up: key to Film formability: ◯: The resultant layer is transparent.; X: The resultant layer is opaque due to crystallization of the compounds or bad compatibility with the resin; conditions: for Film formability: 1:1 by weight with polyamide resin CM8000, solid content 20% by weight, 20 μm layer on aluminum plate, dried at 23° C.; for Film formability (in words): mixed with an alcohol-soluble resin
Description: In addition, each of the compound of Example 1 and comparative compounds (6) to (9) was mixed with an alcohol-soluble polyamide resin (CM8000 from Toray Industries, Inc.) in a weight ratio of 1:1 such that the solid content of the mixture is 20% by weight. Each of the mixtures was coated on an aluminum plate by a blade coating method and then dried at room temperature (23° C.) to prepare a layer with a thickness of 20 μm. The thus prepared layers were visually observed to determine the film formability of the layers. The film formability was graded as follows:
◯: The resultant layer is transparent.
X: The resultant layer is opaque due to crystallization of the compounds or bad compatibility with the resin.

[4] = Crosslinked outermost layer of photoreceptor from methanol coating liquid; image formation; conditions: with methyl trimethoxy silane in methanol
Description: Preparation of Crosslinked Charge Transport Layer Using Sol-Gel Method
The following components were mixed.
The mixture was agitated for one hour at room temperature to perform a reaction. Then 53.4 mg of tris(2,4-pentanedionate)aluminum (III) was added to the mixture to prepare a coating liquid including methanol as a solvent.
The coating liquid was coated on the above-prepared charge transport layer by a spray coating method and then dried to form an outermost layer with a thickness of 2 μm. The photoreceptor was heated for 1 hour at 130° C. to crosslink the outermost layer.
The photoreceptor was set in the main body of the image forming apparatus (IMAGIO NEO) to produce images. The resultant images had good image qualities.
The procedure for preparation of the outermost layer in Applied Example 1 was repeated except that the compound of Example 1 was replaced with each of the comparative compounds (6) to (9).

SMILES | Solubility to methanol (present inventors' study of prior-art compounds) [1] | Solubility to methanol (in words) [2] | Solubility to methanol, solid content 5% by weight [2] | Solubility to methanol, solid content 10% by weight [2] | Solubility to methanol, solid content 20% by weight [2] | Solubility to methanol, solid content 30% by weight [2] | Solubility to methanol, solid content 40% by weight [2] | Solubility to methanol, solid content 50% by weight [2] | Solubility to methanol, solid content 60% by weight [2] | Film formability [3] | Preparation of outermost layer coating liquid in methanol [4] | Film formability (in words) [3]
Cc1ccc(N(c2ccc(C)cc2)c2ccc(C(C)(c3ccc(O)cc3)c3ccc(O)cc3)cc2)cc1 [1,1-bis(4-hydroxyphenyl)-1-[4-(paraditolylamino)phenyl]ethane] | insufficient |  |  |  |  |  |  |  |  |  |  | 
Cc1ccc(N(c2ccc(C)cc2)c2ccc(C(C)(c3ccc(O)cc3)c3ccc(O)cc3)cc2)cc1 [Comp. compound (6)] |  | poor solubility to methanol | ◯ | ◯ | ◯ | ◯ | X | X | X | X | coating liquids could not be prepared | 
Oc1cccc(N(c2ccccc2)c2ccc(-c3ccc(N(c4ccccc4)c4cccc(O)c4)cc3)cc2)c1 [Comp. compound (7)] |  | poor solubility to methanol | ◯ | ◯ | ◯ | X | X | X | X | X | coating liquids could not be prepared | 
CCc1ccc(N(c2ccc(CCO)cc2)c2ccc(CCO)cc2)cc1C [Comp. compound (8)] |  |  | ◯ | ◯ | ◯ | ◯ | X | X | X | X | coating liquid could be prepared | 
Cc1ccc(N(c2ccc(C)cc2)c2ccc(C=C(c3ccc(OCCO)cc3)c3ccc(OCCO)cc3)cc2)cc1 [Comp. compound (9)] |  | poor solubility to methanol | X | X | X | X | X | X | X |  | coating liquids could not be prepared | 
Cc1ccc(N(c2ccc(C)cc2)c2ccc(C=C(c3ccc(OCC(O)CO)cc3)c3ccc(OCC(O)CO)cc3)cc2)cc1 (stereo not shown) [Compound of Ex. 1, N-{4-[2,2-bis(4-(2,3-dihydroxypropyloxy)phenyl)vinyl]phenyl}-N,N-bis(4-tolyl)amine] |  | good solubility to methanol | ◯ | ◯ | ◯ | ◯ | ◯ | ◯ | ◯ | ◯ |  | good film formability
OCC(O)COc1ccc(N(c2ccccc2)c2ccc(-c3ccc(N(c4ccccc4)c4ccc(OCC(O)CO)cc4)cc3)cc2)cc1 (stereo not shown) [Example 2, N,N′-diphenyl-N,N′-bis[4-(2,3-dihydroxypropyloxy)phenyl]benzidine] |  | as good solubility to methanol |  |  |  |  |  |  |  |  |  | as good solubility to methanol and film formability as the compound of Example 1
Oc1cccc(N(c2ccccc2)c2ccc(-c3ccc(N(c4ccccc4)c4cccc(O)c4)cc3)cc2)c1 [N,N′-diphenyl-N,N′-bis(3-hydroxyphenyl)-[1,1′-biphenyl]-4,4′-diamine] | insufficient |  |  |  |  |  |  |  |  |  |  | 
